{
  "source": "paper doi:10.1101/2023.07.03.547578v2",
  "about": "(bioRxiv, 2023)",
  "key": {"Casq2-/- mice [1]": {"test_system": "Casq2-/- mice", "conditions": "ref Blackwell et al., 2023, cited from earlier work"}, "[2]": {"test_system": "RyR2-mediated spontaneous Ca2+ release in Casq2-/- cardiomyocytes", "conditions": "read-out: IC50, intact cardiomyocyte assay; ref Batiste et al., 2019; cited from earlier work"}, "RyR2 [3]": {"molecular_target": "T1, RyR2 (Sus scrofa, UniProt A0A5G2R1W3)", "T1 sequence (A0A5G2R1W3 20-4900)": "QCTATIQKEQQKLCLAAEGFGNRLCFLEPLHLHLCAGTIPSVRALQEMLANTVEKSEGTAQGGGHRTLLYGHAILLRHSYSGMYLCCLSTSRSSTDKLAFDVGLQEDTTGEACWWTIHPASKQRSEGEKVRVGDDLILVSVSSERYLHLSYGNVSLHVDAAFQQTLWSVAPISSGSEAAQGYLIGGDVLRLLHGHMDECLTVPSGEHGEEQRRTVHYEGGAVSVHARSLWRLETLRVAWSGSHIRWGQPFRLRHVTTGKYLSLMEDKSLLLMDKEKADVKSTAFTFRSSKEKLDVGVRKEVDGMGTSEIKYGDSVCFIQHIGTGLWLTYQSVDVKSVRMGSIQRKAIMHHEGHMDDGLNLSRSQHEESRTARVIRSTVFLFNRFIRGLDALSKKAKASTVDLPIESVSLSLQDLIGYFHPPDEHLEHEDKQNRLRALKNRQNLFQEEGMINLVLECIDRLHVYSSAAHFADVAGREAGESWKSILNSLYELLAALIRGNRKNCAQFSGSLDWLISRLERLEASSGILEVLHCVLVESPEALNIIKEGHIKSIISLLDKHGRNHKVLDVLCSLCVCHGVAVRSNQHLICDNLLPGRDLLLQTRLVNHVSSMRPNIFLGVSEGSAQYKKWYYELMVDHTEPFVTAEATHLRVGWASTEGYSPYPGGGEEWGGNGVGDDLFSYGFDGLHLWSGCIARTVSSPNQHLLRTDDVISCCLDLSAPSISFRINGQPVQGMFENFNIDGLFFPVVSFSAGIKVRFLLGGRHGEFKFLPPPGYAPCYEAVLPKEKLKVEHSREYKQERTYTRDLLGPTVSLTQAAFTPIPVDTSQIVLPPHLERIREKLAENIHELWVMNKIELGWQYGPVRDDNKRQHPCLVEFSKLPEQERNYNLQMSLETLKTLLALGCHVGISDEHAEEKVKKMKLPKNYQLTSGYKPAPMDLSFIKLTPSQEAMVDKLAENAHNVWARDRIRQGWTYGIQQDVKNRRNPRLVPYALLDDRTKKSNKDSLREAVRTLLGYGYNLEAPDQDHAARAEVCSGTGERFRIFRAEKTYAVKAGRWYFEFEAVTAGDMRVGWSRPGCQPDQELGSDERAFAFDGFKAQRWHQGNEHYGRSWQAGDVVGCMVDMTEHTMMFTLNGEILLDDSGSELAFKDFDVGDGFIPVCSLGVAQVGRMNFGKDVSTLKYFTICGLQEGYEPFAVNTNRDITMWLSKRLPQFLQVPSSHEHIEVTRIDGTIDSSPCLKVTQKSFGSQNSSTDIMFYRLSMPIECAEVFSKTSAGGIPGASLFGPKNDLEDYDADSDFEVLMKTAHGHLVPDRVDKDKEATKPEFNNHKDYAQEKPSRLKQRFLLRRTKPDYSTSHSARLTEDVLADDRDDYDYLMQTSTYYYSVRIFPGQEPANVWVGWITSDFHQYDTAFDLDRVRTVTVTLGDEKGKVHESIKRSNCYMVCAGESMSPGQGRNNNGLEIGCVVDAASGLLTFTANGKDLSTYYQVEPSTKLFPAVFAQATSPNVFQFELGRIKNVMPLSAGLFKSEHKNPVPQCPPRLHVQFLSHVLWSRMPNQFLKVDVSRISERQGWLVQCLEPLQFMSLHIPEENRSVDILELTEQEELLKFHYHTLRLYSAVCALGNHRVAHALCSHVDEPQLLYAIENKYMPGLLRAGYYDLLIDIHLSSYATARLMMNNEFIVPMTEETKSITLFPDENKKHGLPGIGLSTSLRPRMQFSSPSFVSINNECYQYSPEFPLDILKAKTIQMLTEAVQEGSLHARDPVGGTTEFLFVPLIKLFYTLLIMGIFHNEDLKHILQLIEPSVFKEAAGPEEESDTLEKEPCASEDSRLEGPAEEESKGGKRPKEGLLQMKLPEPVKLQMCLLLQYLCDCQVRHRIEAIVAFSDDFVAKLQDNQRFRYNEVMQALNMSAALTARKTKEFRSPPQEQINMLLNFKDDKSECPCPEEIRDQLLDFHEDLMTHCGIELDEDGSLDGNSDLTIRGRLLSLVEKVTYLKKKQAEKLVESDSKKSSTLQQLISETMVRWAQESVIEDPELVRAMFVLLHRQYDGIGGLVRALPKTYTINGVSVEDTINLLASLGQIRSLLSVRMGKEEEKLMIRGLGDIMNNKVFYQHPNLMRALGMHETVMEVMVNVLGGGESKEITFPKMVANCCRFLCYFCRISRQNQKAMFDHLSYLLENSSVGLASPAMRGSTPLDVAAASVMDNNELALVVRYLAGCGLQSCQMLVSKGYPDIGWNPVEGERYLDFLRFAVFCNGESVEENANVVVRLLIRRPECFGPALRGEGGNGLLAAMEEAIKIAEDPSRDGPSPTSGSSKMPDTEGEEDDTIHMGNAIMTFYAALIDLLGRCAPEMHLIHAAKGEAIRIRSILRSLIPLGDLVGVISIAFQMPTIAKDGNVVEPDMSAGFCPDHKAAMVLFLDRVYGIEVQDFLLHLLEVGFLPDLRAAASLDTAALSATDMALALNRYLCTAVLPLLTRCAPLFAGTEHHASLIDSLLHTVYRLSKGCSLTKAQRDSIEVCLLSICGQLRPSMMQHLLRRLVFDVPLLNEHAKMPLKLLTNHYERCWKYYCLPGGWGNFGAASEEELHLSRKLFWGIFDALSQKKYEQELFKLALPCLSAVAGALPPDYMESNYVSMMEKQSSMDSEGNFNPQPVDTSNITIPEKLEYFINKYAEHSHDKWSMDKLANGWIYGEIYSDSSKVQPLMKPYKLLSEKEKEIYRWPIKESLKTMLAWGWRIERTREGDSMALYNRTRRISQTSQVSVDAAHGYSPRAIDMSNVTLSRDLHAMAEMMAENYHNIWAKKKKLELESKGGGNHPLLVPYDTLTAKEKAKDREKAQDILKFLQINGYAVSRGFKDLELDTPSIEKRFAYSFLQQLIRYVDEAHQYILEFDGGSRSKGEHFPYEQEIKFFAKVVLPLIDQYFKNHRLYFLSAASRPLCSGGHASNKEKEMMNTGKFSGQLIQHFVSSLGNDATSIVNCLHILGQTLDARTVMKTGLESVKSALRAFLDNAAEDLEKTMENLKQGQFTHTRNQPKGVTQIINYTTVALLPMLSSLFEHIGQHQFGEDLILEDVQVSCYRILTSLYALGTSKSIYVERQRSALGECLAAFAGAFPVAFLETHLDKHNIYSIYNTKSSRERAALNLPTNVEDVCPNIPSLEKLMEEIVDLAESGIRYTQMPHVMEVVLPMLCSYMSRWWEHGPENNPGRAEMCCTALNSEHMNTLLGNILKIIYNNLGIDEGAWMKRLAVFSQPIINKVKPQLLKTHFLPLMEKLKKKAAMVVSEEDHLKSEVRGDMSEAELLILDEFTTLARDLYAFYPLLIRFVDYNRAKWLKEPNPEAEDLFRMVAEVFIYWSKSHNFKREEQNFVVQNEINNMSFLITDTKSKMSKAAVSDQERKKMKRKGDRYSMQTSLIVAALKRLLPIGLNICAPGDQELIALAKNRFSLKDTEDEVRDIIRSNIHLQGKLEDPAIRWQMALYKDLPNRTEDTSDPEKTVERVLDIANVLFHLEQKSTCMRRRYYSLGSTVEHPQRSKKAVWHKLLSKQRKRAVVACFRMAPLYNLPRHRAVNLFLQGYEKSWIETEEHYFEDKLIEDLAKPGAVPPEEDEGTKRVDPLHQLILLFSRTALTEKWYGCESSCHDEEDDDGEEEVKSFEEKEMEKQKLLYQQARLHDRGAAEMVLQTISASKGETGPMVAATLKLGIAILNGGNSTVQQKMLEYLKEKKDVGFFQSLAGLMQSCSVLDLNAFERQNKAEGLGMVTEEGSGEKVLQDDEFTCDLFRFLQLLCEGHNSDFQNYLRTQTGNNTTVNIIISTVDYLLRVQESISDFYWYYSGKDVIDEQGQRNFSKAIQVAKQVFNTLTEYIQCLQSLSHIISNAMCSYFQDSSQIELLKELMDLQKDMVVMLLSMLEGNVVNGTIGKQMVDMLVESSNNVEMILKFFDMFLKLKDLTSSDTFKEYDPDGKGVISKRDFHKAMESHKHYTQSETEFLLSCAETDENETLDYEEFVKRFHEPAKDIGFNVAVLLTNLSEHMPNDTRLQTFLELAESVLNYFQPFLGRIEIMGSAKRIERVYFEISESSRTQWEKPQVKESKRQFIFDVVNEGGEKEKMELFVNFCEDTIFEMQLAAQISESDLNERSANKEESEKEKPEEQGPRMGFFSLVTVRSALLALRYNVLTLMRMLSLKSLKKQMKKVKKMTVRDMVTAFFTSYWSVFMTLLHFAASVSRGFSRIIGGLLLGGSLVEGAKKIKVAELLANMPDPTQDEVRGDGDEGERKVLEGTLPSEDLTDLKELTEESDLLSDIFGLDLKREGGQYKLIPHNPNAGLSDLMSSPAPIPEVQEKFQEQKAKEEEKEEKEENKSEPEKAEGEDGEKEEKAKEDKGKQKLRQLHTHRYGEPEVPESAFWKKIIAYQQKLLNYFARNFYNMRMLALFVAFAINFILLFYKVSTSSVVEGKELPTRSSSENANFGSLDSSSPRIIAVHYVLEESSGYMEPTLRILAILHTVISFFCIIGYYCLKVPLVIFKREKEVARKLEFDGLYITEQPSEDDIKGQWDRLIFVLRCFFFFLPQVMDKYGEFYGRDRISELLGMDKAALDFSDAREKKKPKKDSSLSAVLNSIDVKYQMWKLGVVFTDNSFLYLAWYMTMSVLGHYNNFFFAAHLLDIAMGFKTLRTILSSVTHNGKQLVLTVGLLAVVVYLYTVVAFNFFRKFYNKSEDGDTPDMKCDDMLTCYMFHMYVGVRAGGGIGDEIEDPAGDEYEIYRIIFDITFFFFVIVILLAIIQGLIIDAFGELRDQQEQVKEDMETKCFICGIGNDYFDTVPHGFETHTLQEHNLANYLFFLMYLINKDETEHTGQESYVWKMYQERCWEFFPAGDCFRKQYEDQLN", "conditions": "read-out: IC50, ryanodine binding assay; ref Batiste et al., 2019; cited from earlier work"}, "[4]": {"conditions": "mice; ref Blackwell et al., 2023; cited from earlier work"}, "RyR2 [5]": {"molecular_target": "T1, RyR2", "assay": "[3H]ryanodine binding assay in cardiac SR vesicles", "design": "species or system porcine"}, "Stability in plasma": {"assay": "Stability in plasma", "type": "in vitro ADME", "conditions": "abstract; method not given"}, "[6]": {"assay": "In vivo pharmacokinetic study", "design": "species or system mouse", "conditions": "3 mg/kg i.p."}, "[7]": {"conditions": "ref Smith et al., 2021; cited from earlier work"}, "Casq2-/- mice [8]": {"test_system": "Casq2-/- mice", "assay": "Catecholamine-induced arrhythmia challenge", "type": "in vivo, mouse", "conditions": "3 and 30 mg/kg i.p., ECG"}, "insect RyR": {"test_system": "insect RyR", "conditions": "ref Ohshiro et al., 2012; cited from earlier work"}, "RyR2 [9]": {"test_system": "RyR2", "conditions": "ref Ohshiro et al., 2012; cited from earlier work"}},
  "note": "Like-named read-outs stand apart in the source and are kept apart here.",
  "data": [
    {"compound": "ent-(+)-verticilide [ent-1]", "values": [
      {"measurement": "VT incidence", "setting": "Casq2-/- mice [1]; 30 mg/kg, same arrhythmia induction protocol", "result": "~35", "unit": "%"},
      {"measurement": "antiarrhythmic efficacy in vivo", "setting": "Casq2-/- mice [1]; single dose study at 3 and 30 mg/kg i.p.", "result": "had antiarrhythmic efficacy"},
      {"measurement": "IC50", "setting": "[2]", "result": 100, "unit": "nM"},
      {"measurement": "IC50", "setting": "RyR2 [3]", "result": 100, "unit": "nM"},
      {"measurement": "half-life (t1/2)", "setting": "[4]", "result": 6.92, "unit": "h"}
    ]},
    {"compound": "CCCCC[C@@H]1OC(=O)[C@@H](C)N(C)C(=O)[C@H](CCCCC)OC(=O)[C@@H](C)N(C)C(=O)[C@H](CCCCC)OC(=O)[C@@H](C)N(C)C1=O", "note": "(single isomer, unassigned) [ent-B1, ent-verticilide B1]", "values": [
      {"measurement": "IC50", "setting": "RyR2 [5]", "result": 1930, "unit": "nM"},
      {"measurement": "maximal inhibition of [3H]ryanodine binding", "setting": "RyR2 [5]; incomplete maximal inhibition vs DMSO", "result": "approximately 30%"},
      {"measurement": "stability in plasma", "setting": "Stability in plasma", "result": "stable"},
      {"measurement": "clinical observation during the PK study", "setting": "[6]; CD1 mice, up to 480 min", "result": "no abnormality"},
      {"measurement": "time of peak plasma concentration", "setting": "[6]; mice, plasma", "result": 10, "unit": "min"},
      {"measurement": "elimination half-life (t1/2)", "setting": "[6]; mice, plasma, mean", "result": 0.757, "unit": "h"},
      {"measurement": "lipophilicity relative to ent-1", "setting": "[7]", "result": "loss of lipophilicity"},
      {"measurement": "QRS width", "setting": "Casq2-/- mice [8]", "result": "No changes"},
      {"measurement": "heart rate", "setting": "Casq2-/- mice [8]", "result": "No changes"}
    ]},
    {"compound": "verticilide B1", "values": [
      {"measurement": "activity against insect RyR", "setting": "insect RyR", "result": "not active"},
      {"measurement": "activity against RyR2", "setting": "RyR2 [9]", "result": "not active"}
    ]}
  ]
}
